Series [1] deals with T1, human DHFR (Homo sapiens, UniProt P00374).
T1 construct: made in house; host or cells: E. coli M15
T1 sequence (P00374 1-187): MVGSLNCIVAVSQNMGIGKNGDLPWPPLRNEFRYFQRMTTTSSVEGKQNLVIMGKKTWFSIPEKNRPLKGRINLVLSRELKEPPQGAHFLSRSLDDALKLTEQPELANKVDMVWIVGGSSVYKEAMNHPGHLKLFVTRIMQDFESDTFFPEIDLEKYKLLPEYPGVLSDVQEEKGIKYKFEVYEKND
Kind of series: Inhibition of human DHFR (I50-derived Ki).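 Note: recombinant human DHFR expressed in E. coli and purified by methotrexate affinity chromatography, enzyme activity followed spectrophotometrically.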 Type of series: biochemical.

Series [2] concerns the target human DHFR. Nature of the series: Inhibition of human DHFR (I50-derived Ki).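 Note: recombinant human DHFR expressed in E. coli and purified by methotrexate affinity chromatography, enzyme activity followed spectrophotometrically.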 Type of series: biochemical.
The subject of series [3] is wild-type (TM4/8.2) strain of P. falciparum. Nature of the series: microbe, parasite or virus in culture. Type of series: cell-based, Plasmodium falciparum. The following applies: Plasmodium falciparum; wild-type strain TM4/8.2. The essentials: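 Parasitized erythrocytes (1.5% cell suspension, 1-2% parasitemia) incubated with compound (0.1% DMSO final) at 37° C in 3% CO2 for 24 h, then pulsed with 0.25 μCi [3H]-hypoxanthine for a further 18-24 h. Parasite DNA harvested onto glass filters; incorporated radioactivity counted by liquid scintillation.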

Series [4] addresses T2, A16V.S108T mutant (mut) of DHFR from Plasmodium falciparum (Plasmodium falciparum, UniProt A7UD81, A16V/S108T).
T2 construct: The Dihydrofolate Reductase Domain of Plasmodium falciparum Thymidylate Synthase-Dihydrofolate Reductase; made in house
Nature of the series: biochemical.
Method: (§1) For determination of the Ki values of a number of synthesized analogues, the assay reactions were initiated with affinity-purified enzyme (^˜0.005-0.01 U ml^−1), and the initial velocities in the presence of varying concentrations of inhibitors were analysed by non-linear least square fit using Kaleidagraph™ software.

Series [5] deals with A16V.S108T mutant (mut) of DHFR from Plasmodium falciparum. Nature of the series: biochemical. The following applies: resistance factor.
Method: as §1
Series [6] deals with T3, DHFR-TS from Trypanosoma cruzi (Trypanosoma cruzi, UniProt Q27793).
T3 construct: pET 11c with the insertion of the complete ORF of the gene tc-dhfrts; made in house; host or cells: E. coli BL21 (DE3)
T3 sequence (Q27793 whole entry): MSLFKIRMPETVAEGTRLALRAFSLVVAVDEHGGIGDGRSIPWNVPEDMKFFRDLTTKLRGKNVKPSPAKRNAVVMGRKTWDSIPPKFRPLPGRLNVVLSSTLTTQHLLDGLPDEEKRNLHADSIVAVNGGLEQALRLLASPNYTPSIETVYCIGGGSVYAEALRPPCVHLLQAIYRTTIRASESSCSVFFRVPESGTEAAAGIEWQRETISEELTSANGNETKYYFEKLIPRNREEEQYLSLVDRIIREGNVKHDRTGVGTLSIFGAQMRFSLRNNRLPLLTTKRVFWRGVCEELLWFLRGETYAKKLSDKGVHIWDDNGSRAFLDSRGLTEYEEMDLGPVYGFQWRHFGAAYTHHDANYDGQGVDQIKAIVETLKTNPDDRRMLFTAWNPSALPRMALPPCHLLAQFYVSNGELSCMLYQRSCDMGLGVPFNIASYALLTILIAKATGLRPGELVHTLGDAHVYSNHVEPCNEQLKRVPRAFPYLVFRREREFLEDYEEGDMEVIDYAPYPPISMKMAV
Nature of the series: Inhibition of T. cruzi DHFR-TS (I50-derived Ki).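 Note: enzymes were recombinant T. cruzi DHFR-TS and human DHFR, both expressed in E. coli and purified on a methotrexate affinity column, with dihydrofolate and NADPH as substrates.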 Type of series: biochemical.

For series [7], the target named is T4, wild-type (wt) DHFR from Plasmodium falciparum (Plasmodium falciparum, UniProt P13922, N108S/R59C).
T4 construct: The Dihydrofolate Reductase Domain of Plasmodium falciparum Thymidylate Synthase-Dihydrofolate Reductase; made in house
T4 sequence (P13922 10-228 R59C/N108S): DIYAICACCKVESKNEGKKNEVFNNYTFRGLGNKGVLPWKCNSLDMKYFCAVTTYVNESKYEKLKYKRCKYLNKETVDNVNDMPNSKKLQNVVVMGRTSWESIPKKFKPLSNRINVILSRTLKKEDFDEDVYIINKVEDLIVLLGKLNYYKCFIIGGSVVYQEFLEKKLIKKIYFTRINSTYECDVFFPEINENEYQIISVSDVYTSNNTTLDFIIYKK
Nature of the series: Inhibition of wild-type pfDHFR (spectrophotometric, Ki).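 Note: Affinity-purified enzyme, initial reaction rates measured across a range of inhibitor concentrations, Ki obtained by nonlinear least-squares fitting.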 Type of series: biochemical. As to conditions: Ki(wt) nM.
Method: as §1

These results are taken from patent US20030203908A1, “Dihydrofolate reductase inhibitors” (priority 2000, published 2003).

T2 sequence (A7UD81 1-231 A16V/S108T): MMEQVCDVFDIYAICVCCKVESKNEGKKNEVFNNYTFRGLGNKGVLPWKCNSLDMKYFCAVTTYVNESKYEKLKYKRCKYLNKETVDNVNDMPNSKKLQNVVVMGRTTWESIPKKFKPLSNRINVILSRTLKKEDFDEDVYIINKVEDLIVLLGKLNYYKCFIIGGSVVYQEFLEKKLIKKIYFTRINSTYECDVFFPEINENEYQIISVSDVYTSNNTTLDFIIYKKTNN

For orientation: Ki means a dissociation constant, usually derived from enzyme kinetics or from competition with a known ligand. Read a high Ki as weaker binding. In general, IC50 refers to the concentration that inhibits the measured activity by half. Broadly, the melting point is the temperature of the solid-liquid transition. The compound `NC1=NC(c2cccc(Oc3ccccc3)c2)N(c2ccc(OCc3ccccc3)cc2)C(N)=N1` (stereo not drawn) [1-p-Benzyloxyphenyl-2-m-phenoxyphenyl-4,6-diamino-1,2-dihydro-1,3,5-triazine] yielded a melting point of 208 to 210 °C. The same compound had a Ki at human DHFR [1] (Human Ki (I50)(nM), human DHFR) of 10 nM. The “inhibitory activity against human DHFR” value at human DHFR [1] (compared with methotrexate) is “comparable to that of methotrexate”. Besides, on human DHFR [2], the “Ki (human)/Ki (P. falc. mut)” value came out at 2.2, the “Ki (human)/Ki (P. falc. wt)” value amounted to 11 and the “Ki (human)/Ki (T. cruzi)” value was 3.33. For the same compound, in series [3], the midpoint of inhibition, the IC50, lay at 255 nM. This compound also had an inhibition constant (Ki) in series [4] of 4.5 ± 0.6 nM. In addition, the “Ki(mut)/Ki(wt)” value in series [5] worked out at 5. The Ki in series [6] was 3 nM. This compound also came in with a Selectivity in series [6] (human Ki / T. cruzi Ki) of 3.3. The same compound gave an inhibitory constant (Ki) in series [7] of 0.9 ± 0.2 nM.
